Measured values reported in PMC4891385 (Clinical Drug Investigation, 2016).
Like-named read-outs stand apart in the source and are kept apart here. Values belong to the molecule of their own block, whether it stands above or below them.

What was measured:
[1] = furosemide 40 mg with lesinurad 400 mg vs alone
[2] = substrate: O=C(O)CSc1nnc(Br)n1-c1ccc(C2CC2)c2ccccc12; test: [14C]-lesinurad uptake, substrate test, OAT3 oocytes; assay type: in vitro ADME; conditions: other: lesinurad as substrate of OAT3
[3] = substrate: O=C(O)CSc1nnc(Br)n1-c1ccc(C2CC2)c2ccccc12; test: [14C]-lesinurad uptake, substrate test, hOCT1 MDCK-II cells; assay type: in vitro ADME, human; conditions: other: lesinurad as substrate of OCT1
[4] = atorvastatin 40 mg with lesinurad 200 mg vs alone

B1: OAT3 (Homo sapiens) (protein)
chain: MTFSEILDRVGSMGHFQFLHVAILGLPILNMANHNLLQIFTAATPVHHCRPPHNASTGPWVLPMGPNGKPERCLRFVHPPNASLPNDTQRAMEPCLDGWVYNSTKDSIVTEWDLVCNSNKLKEMAQSIFMAGILIGGLVLGDLSDRFGRRPILTCSYLLLAASGSGAAFSPTFPIYMVFRFLCGFGISGITLSTVILNVEWVPTRMRAIMSTALGYCYTFGQFILPGLAYAIPQWRWLQLTVSIPFFVFFLSSWWTPESIRWLVLSGKSSKALKILRRVAVFNGKKEEGERLSLEELKLNLQKEISLAKAKYTASDLFRIPMLRRMTFCLSLAWFATGFAYYSLAMGVEEFGVNLYILQIIFGGVDVPAKFITILSLSYLGRHTTQAAALLLAGGAILALTFVPLDLQTVRTVLAVFGKGCLSSSFSCLFLYTSELYPTVIRQTGMGVSNLWTRVGSMVSPLVKITGEVQPFIPNIIYGITALLGGSAALFLPETLNQPLPETIEDLENWSLRAKKPKQEPEVEKASQRIPLQPHGPGLGSS
Km [2]: 2 µM

B2: OCT1 (Homo sapiens) (protein)
chain: MPTVDDILEQVGESGWFQKQAFLILCLLSAAFAPICVGIVFLGFTPDHHCQSPGVAELSQRCGWSPAEELNYTVPGLGPAGEAFLGQCRRYEVDWNQSALSCVDPLASLATNRSHLPLGPCQDGWVYDTPGSSIVTEFNLVCADSWKLDLFQSCLNAGFLFGSLGVGYFADRFGRKLCLLGTVLVNAVSGVLMAFSPNYMSMLLFRLLQGLVSKGNWMAGYTLITEFVGSGSRRTVAIMYQMAFTVGLVALTGLAYALPHWRWLQLAVSLPTFLFLLYYWCVPESPRWLLSQKRNTEAIKIMDHIAQKNGKLPPADLKMLSLEEDVTEKLSPSFADLFRTPRLRKRTFILMYLWFTDSVLYQGLILHMGATSGNLYLDFLYSALVEIPGAFIALITIDRVGRIYPMAMSNLLAGAACLVMIFISPDLHWLNIIIMCVGRMGITIAIQMICLVNAELYPTFVRNLGVMVCSSLCDIGGIITPFIVFRLREVWQALPLILFAVLGLLAAGVTLLLPETKGVALPETMKDAENLGRKAKPKENTIYLKVQTSEPSGT
Km [3]: 20 µM

Further lines, results first:

increase in AUC∞ [4]: 20% | increase in Cmax [4]: 16% | increase in Cmax (atorvastatin 40 mg with lesinurad 400 mg vs alone): 17–34%
Molecule: CC(C)c1c(C(=O)Nc2ccccc2O)c(-c2ccccc2)c(-c2ccc(F)cc2)n1CCC(O)CC(O)CC(=O)O (stereo not drawn) [2-OH-atorvastatin]

reduction of amount excreted in urine [1]: approximately 25%
Molecule: NS(=O)(=O)c1cc(C(=O)O)c(NCc2ccco2)cc1Cl [Furosemide, furosemide]
